According to patent publication US4988699A, “Substituted tetrahydrobenzothiazoles as dopaminergic agents” (Warner-Lambert Company, priority 1989, dated 1991):
Like-named read-outs stand apart in the source and are kept apart here. Blank lines part the entries; values can stand above or below the molecule they belong to.

Legend:
[1] = system: locomotor activity in mice; assay: Inhibition of locomotor activity in mice; type: in vivo; settings: for ED50: Mus musculus, ip, read-out: Inhibition of Locomotor Activity in Mice ED50
Experimental: (§1) The compounds of Formula I are valuable dopaminergic agents. […] Thus, the compounds of Formula I were tested for their ability to inhibit locomotor activity in mice according to the assay described by J. R. McLean, et al, Pharmacology, Biochemistry and Behavior, Volume 8, pages 97-99 (1978); for their ability to inhibit haloperidol binding in a receptor assay described by D. R. Burt, et al, Molecular Pharmacology, Volume 12, pages 800-812 (1976); and for their ability to inhibit dopamine synthesis in rats according to the protocol described by J. R. Walters and R. H. Roth, Naunyn--Schmiedeberg's Archives of Pharmacology, Volume 296, pages 5-14 (1976). The above test methods are incorporated herein by reference.

[2] = target: T1, haloperidol binding in a receptor assay (Bos taurus, UniProt P20288); assay: Inhibition of haloperidol binding
T1 construct: from tissue; host or cells: calf brain (caudate/striatal) membranes, inferred from the cited method
T1 sequence (P20288 whole entry): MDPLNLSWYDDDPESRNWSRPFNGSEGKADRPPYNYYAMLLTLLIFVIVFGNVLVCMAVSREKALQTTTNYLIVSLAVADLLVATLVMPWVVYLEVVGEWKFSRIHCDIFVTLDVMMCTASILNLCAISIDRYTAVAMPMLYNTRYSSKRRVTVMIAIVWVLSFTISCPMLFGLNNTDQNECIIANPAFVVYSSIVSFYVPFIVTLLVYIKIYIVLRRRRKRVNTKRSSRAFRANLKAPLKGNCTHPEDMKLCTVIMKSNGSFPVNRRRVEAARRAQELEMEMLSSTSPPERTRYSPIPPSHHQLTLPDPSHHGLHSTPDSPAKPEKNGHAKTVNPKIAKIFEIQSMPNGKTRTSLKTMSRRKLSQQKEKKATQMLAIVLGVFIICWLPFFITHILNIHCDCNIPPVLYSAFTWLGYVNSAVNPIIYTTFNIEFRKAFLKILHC
Experimental: as §1

[3] = system: dopamine synthesis in rats; assay: Inhibition of dopamine synthesis in rats; type: in vivo; settings: IP
Experimental: as §1

SMILES: Nc1nc2c(s1)CC(CN1CC=C(c3ccccc3)CC1)CC2 (racemic) [Example 8, (±)-6-[(3,6-Dihydro-4-phenyl-1(2H)-pyridinyl)methyl]-4,5,6,7-tetrahydro-2-benzothiazolamine]
ED50 [1]: 0.75 mg/kg

IC50 [2]: ~1.5 µM
SMILES: Nc1nc2c(s1)CC(N1CCN(c3ccccn3)CC1)CC2 (single isomer, unassigned; (-)) [Example 4, (-)-4,5,6,7-Tetrahydro-6-[4-(2-pyridinyl)-1-piperazinyl]-2-benzothiazolamine]
Inhibition of Locomotor Activity in Mice ED50 ([1]; mice, IP): 7.4 mg/kg | Inhibition of Dopamine Synthesis in Rats ([3]; at 4.8 mg/kg): 50%

IC50 [2]: ~0.8 µM
SMILES: Nc1nc2c(s1)CC(N1CCN(c3ccccn3)CC1)CC2 (single isomer, unassigned; (+)) [Example 3, (+)-4,5,6,7-Tetrahydro-6-[4-(2-pyridinyl)-1-piperazinyl]-2-benzothiazolamine]
ED50 ([1]; mice, IP): 9.9 mg/kg | Inhibition of Dopamine Synthesis in Rats ([3]; at 7.0 mg/kg): 50%

SMILES: Nc1nc2c(s1)CC(N1CCN(c3ncccn3)CC1)CC2 (racemic) [Example 1c, (±)-4,5,6,7-Tetrahydro-6-[4-(2-pyrimidinyl)-1-piperazinyl]-2-benzothiazolamine]
ED50 ([1]; mice, IP): 30 mg/kg

SMILES: Nc1nc2c(s1)CC(CCN1CC=C(c3ccccc3)CC1)CC2 (racemic) [Example 10, (±)-6-[2-(3,6-Dihydro-4-phenyl-1(2H)-pyridinyl)ethyl]-4,5,6,7-tetrahydro-2-benzothiazolamine]
ED50 [1]: 0.4 mg/kg

SMILES: O=C(Nc1nc2c(s1)CC(N1CCN(c3ccccn3)CC1)CC2)c1ccccc1 (racemic) [Example 2, (±)-N-[4,5,6,7-Tetrahydro-6-[4-(2-pyridinyl)-1-piperazinyl]-2-benzothiazolyl]benzamide]
ED50 ([1]; mice, IP): 3.7 mg/kg | Inhibition of Dopamine Synthesis in Rats ([3]; at 10 mg/kg): 59%

SMILES: Nc1nc2c(s1)CC(CN1CCN(c3ccccn3)CC1)CC2 (racemic) [Example 7, (±)-4,5,6,7-Tetrahydro-6-[[4-(2-pyridinyl)-1-piperazinyl]methyl]-2-benzothiazolamine]
ED50 ([1]; mice, IP): 7.2 mg/kg | Inhibition of Dopamine Synthesis in Rats ([3]; at 10 mg/kg): 48%

SMILES: Nc1nc2c(s1)CC(CCN1CCN(c3ccccn3)CC1)CC2 (single isomer, unassigned; (+)) [Example 11, (+)-4,5,6,7-Tetrahydro-6-[2-[4-(2-pyridinyl)-1-piperazinyl]ethyl]-2-benzothiazolamine]
Inhibition of Locomotor Activity in Mice ED50 ([1]; mice, IP): 0.37 mg/kg | Inhibition of Dopamine Synthesis in Rats ([3]; at 0.8 mg/kg): 50%

SMILES: Nc1nc2c(s1)CC(N1CCN(c3ccccc3)CC1)CC2 (racemic) [Example 1b, (±)-4,5,6,7-Tetrahydro-6-(4-phenyl-1-piperazinyl)-2-benzothiazolamine]
ED50 ([1]; mice, IP): 6.1 mg/kg

SMILES: Nc1nc2c(s1)CC(N1CC=C(c3ccccc3)CC1)CC2 (racemic) [Example 1a, (±)-6-(3,6-Dihydro-4-phenyl-1(2H)-pyridinyl)-4,5,6,7-tetrahydro-2-benzothiazolamine]
ED50 [1]: 1.5 mg/kg | Inhibition of Dopamine Synthesis in Rats ([3]; at 10 mg/kg): 69%

IC50 [2]: 0.876 µM
SMILES: Nc1nc2c(s1)CC(N1CCN(c3ccccn3)CC1)CC2 (racemic) [Example 1, (±)-4,5,6,7-Tetrahydro-6-[4-(2-pyridinyl)-1-piperazinyl]-2-benzothiazolamine]
ED50 ([1]; mice, IP): 6.6 mg/kg | Inhibition of Dopamine Synthesis in Rats ([3]; at 4.4 mg/kg): 50%

IC50 [2]: 0.105 µM
SMILES: Nc1nc2c(s1)CC(CCN1CCN(c3ccccn3)CC1)CC2 (racemic) [Example 9, (±)-4,5,6,7-Tetrahydro-6-[2-[4-(2-pyridinyl)-1-piperazinyl]ethyl]-2-benzothiazolamine]
ED50 ([1]; mice, IP): 0.21 mg/kg | Inhibition of Dopamine Synthesis in Rats ([3]; at 1.3 mg/kg): 50%

SMILES: c1ccc(N2CCN(CC3CCc4ncsc4C3)CC2)nc1 (racemic) [Example 5, (±)-4,5,6,7-tetrahydro-6-[[4-(2-pyridinyl)-1-piperazinyl]methyl]benzothiazole]
ED50 ([1]; mice, IP): 7.4 mg/kg

SMILES: Nc1nc2c(s1)CC(CCN1CCN(c3ccccn3)CC1)CC2 (single isomer, unassigned; (-)) [Example 11a, (-)-4,5,6,7-Tetrahydro-6-[2-[4-(2-pyridinyl)-1-piperazinyl]ethyl]-2-benzothiazolamine]
ED50 ([1]; mice, IP): 0.2 mg/kg | Inhibition of Dopamine Synthesis in Rats ([3]; at 0.2 mg/kg): 50%
